As usually defined, the IC50 is the concentration that gives 50% inhibition.

What all share (assay): LPS neutralization assay (Limulus amoebocyte lysate, QCL-1000)
One assay has as its system LPS from P. aeruginosa. Format: biochemical, Pseudomonas aeruginosa. The conditions noted are these: read-out: IC50 values (μM) for LPS binding, P.a. The source says:
(§1) The ability of compounds to neutralize endotoxin was detected in vitro by using the chromogenic QCL-1000 kit from BioWhittaker, Inc. (Walkersville, Md.), and as described in their protocol. This Limulus amoebocyte lysate (LAL) assay is quantitative for Gram negative bacterial endotoxin (lipopolysaccharide, LPS). In this assay compounds that are active inhibit the LPS-mediated activation of a proenzyme whose active form would release p-nitroaniline (pNA) from a colorless synthetic substrate producing a yellow color (pNA) whose absorption is monitored spectrophotometrically at 405-410 nm. The initial rate of enzyme activation is proportional to the concentration of endotoxin present.
(§2) Variants of LPS from six Gram negative bacteria were used: E. coli serotypes 0111:B4 (Combrex, Walkersville, Md.) and 055:B5 (Sigma, St. Louis, Mo.); Klebsiella pneumoniae (List Biologies, San Jose, Calif.); Pseudomonas aeruginosa (List Biologies, San Jose, Calif.); Salmonella typhimurium (List Biologies, San Jose, Calif.), and Serratia marcascens (List Biologies, San Jose, Calif.). The concentration of compound required to neutralize a given LPS and therefore to inhibit the Limulus amoebocyte lysate driven by 0.04 units of any given LPS was determined by dose response curves fit by using a standard sigmoidal function to determined the JC50 value for each lopomimetic compound. The 0.04 units corresponds to 0.01 ng LPS from E. coli serotype 055:B5, 0.01 ng LPS from E. coli serotype 0111:B4, 0.003 ng LPS from K. pneumoniae, 0.01 ng LPS from P. aeruginosa, 0.03 ng LPS from S. typhimurium, and 0.03 ng LPS from S. marcascens.

For assay [1], the system named is LPS from E. coli serotype 0111:B4. It counts as biochemical. As to conditions: read-out: IC50 values (μM) for LPS binding, E. coli 0111:B4.
Description: as §1, §2

Assay [2] relates to LPS from E. coli serotype 055:B5. It counts as biochemical.
Description: as §1, §2

Another assay deals with LPS from S. typhimurium. Format: biochemical, Salmonella typhimurium. As to conditions: read-out: IC50 values (μM) for LPS binding, Salmonella.
Description: as §1, §2

In a further assay the test system is LPS from K. pneumoniae. Format: biochemical, Klebsiella pneumoniae. The conditions noted are these: read-out: IC50 values (μM) for LPS binding, Klebsiella.
Description: as §1, §2

In another assay the test system is LPS from S. marcascens. It counts as biochemical, Serratia marcascens. The conditions noted are these: read-out: IC50 values (μM) for LPS binding, Serratia.
Description: as §1, §2

Setting [3] is: Table 3, errors estimated ±30%, read-out: IC50 values (μM) for LPS binding, E. coli 055:B5.
The mark [4] stands for this setting: Table 2, read-out: IC50 values (μM) for LPS binding, E. coli 055:B4.

Read-outs that look alike come from different tables or passages of the source. Bounds are passed on as bounds.

Take “5,11,17,23-Tetra-tert-butyl-25-(2-aminoethoxy)-27-(2-guanidinoethoxy)-26,28-dihydroxy Calix[4]arene trifluoroacetic acid salt [Compound 28]”: the IC50 was above 5 µM in the assay with LPS from P. aeruginosa (Table 3, errors estimated ±30%); above 5 µM in assay [1] (Table 3, errors estimated ±30%); 4.1 µM in assay [2] (setting [3]); 2.6 µM in the assay on LPS from S. typhimurium (Table 3, errors estimated ±30%); above 5 µM in the assay with LPS from K. pneumoniae (Table 3, errors estimated ±30%); above 5 µM in the assay with LPS from S. marcascens (Table 3, errors estimated ±30%).
Turning to “5,17-Di-(2-methallyl)-11,23-diallyl-25,26,27,28-tetrakis-N—(N,N-dimethyl-2-aminoethyl) carbamoylmethoxy calix[4]arene [Compound 41]”, the IC50 in the assay with LPS from P. aeruginosa (Table 3, errors estimated ±30%) is above 5 µM; in assay [1] (Table 3, errors estimated ±30%), 4.7 µM; in assay [2] (setting [3]), 3.6 µM; in the assay with LPS from S. typhimurium (Table 3, errors estimated ±30%), above 5 µM; in the assay on LPS from K. pneumoniae (Table 3, errors estimated ±30%) it was above 5 µM; in the assay with LPS from S. marcascens (Table 3, errors estimated ±30%), above 5 µM.
Consider “5,17-Di-(2-methylpropyl)-11,23-dipropyl-25,26,27,28-tetrakis-N—(N,N-dimethyl-2-aminoethyl)carbamoylmethoxy calix[4]arene [Compound 17]”, for which the IC50 is above 5 µM in the assay with LPS from P. aeruginosa (Table 3, errors estimated ±30%); 3.7 µM in assay [1] (Table 3, errors estimated ±30%); 3.8 µM in assay [2] (setting [3]); 3.1 µM in the assay on LPS from S. typhimurium (Table 3, errors estimated ±30%); 2.1 µM in the assay on LPS from K. pneumoniae (Table 3, errors estimated ±30%); above 5 µM in the assay on LPS from S. marcascens (Table 3, errors estimated ±30%).
Regarding “5,17-Di-(hydroxycabonyl)ethyl-25,27-di-(3-methylbutoxy)-26,28-dihydroxycalix[4]arene [Compound 47]”, the IC50 with LPS from P. aeruginosa (Table 2) is above 5 µM; in the assay on LPS from P. aeruginosa (Table 3, errors estimated ±30%), above 5 µM; in assay [1] (Table 2), above 5 µM; in assay [1] (Table 3, errors estimated ±30%), above 5 µM; in assay [2] (setting [4]) it was above 5 µM; in assay [2] (setting [3]), above 5 µM. The IC50 in the assay on LPS from S. typhimurium (Table 2) is above 5 µM; in the assay with LPS from S. typhimurium (Table 3, errors estimated ±30%) it was above 5 µM; in the assay on LPS from K. pneumoniae (Table 2), above 5 µM; in the assay with LPS from K. pneumoniae (Table 3, errors estimated ±30%) it was above 5 µM; in the assay with LPS from S. marcascens (Table 2), above 5 µM; in the assay with LPS from S. marcascens (Table 3, errors estimated ±30%), above 5 µM.
In the case of “25,27-Bis(2-guanidinoethoxy)-26,28-dihydroxy calix[4]arene trifluoroacetic acid salt [Compound 36]”, the IC50 was above 5 µM in the assay on LPS from P. aeruginosa (Table 3, errors estimated ±30%); 3.9 µM in assay [1] (Table 3, errors estimated ±30%); 4.1 µM in assay [2] (setting [3]); above 5 µM in the assay with LPS from S. typhimurium (Table 3, errors estimated ±30%); above 5 µM with LPS from K. pneumoniae (Table 3, errors estimated ±30%); above 5 µM in the assay with LPS from S. marcascens (Table 3, errors estimated ±30%).
As for “25,27-Bis[N-(2-aminoethyl)carbamoylmethoxy]-26,28-dihydroxy calix[4]arene [Compound 39]”, the IC50 with LPS from P. aeruginosa (Table 2) is 0.8 µM; with LPS from P. aeruginosa (Table 3, errors estimated ±30%), above 5 µM; in assay [1] (Table 2), 1.6 µM; in assay [1] (Table 3, errors estimated ±30%), above 5 µM; in assay [2] (setting [4]) it was 0.9 µM; in assay [2] (setting [3]), above 5 µM. Besides, the IC50 is 0.6 µM in the assay with LPS from S. typhimurium (Table 2); above 5 µM in the assay with LPS from S. typhimurium (Table 3, errors estimated ±30%); 0.3 µM in the assay with LPS from K. pneumoniae (Table 2); above 5 µM in the assay with LPS from K. pneumoniae (Table 3, errors estimated ±30%); 1.5 µM in the assay on LPS from S. marcascens (Table 2); above 5 µM in the assay with LPS from S. marcascens (Table 3, errors estimated ±30%).
With “25,27-Bis[N—(N,N-dimethyl-2-aminoethyl)carbamoylmethoxy]-26,28-dihydroxy calix[4]arene [Compound 38]”, the IC50 in the assay on LPS from P. aeruginosa (Table 3, errors estimated ±30%) is above 5 µM; in assay [1] (Table 3, errors estimated ±30%), above 5 µM; in assay [2] (setting [3]), above 5 µM; in the assay on LPS from S. typhimurium (Table 3, errors estimated ±30%), above 5 µM; in the assay with LPS from K. pneumoniae (Table 3, errors estimated ±30%), above 5 µM; in the assay with LPS from S. marcascens (Table 3, errors estimated ±30%), above 5 µM.
Turning to `CC(C)(C)c1cc2c(OCC(=O)NCCN)c(c1)Cc1cc(C(C)(C)C)cc(c1OCC(=O)NCCN)Cc1cc(C(C)(C)C)cc(c1OCC(=O)NCCN)Cc1cc(C(C)(C)C)cc(c1OCC(=O)NCCN)C2` [Compound 4], the IC50 is above 5 µM in the assay with LPS from P. aeruginosa (Table 2); 0.8 µM in the assay on LPS from P. aeruginosa (Table 3, errors estimated ±30%); 2.7 µM in assay [1] (Table 2); 1.6 µM in assay [1] (Table 3, errors estimated ±30%); 0.05 µM in assay [2] (setting [4]); 0.9 µM in assay [2] (setting [3]). In addition, the IC50 with LPS from S. typhimurium (Table 2) is 0.8 µM; in the assay with LPS from S. typhimurium (Table 3, errors estimated ±30%), 0.6 µM; with LPS from K. pneumoniae (Table 2), 0.4 µM; with LPS from K. pneumoniae (Table 3, errors estimated ±30%), 0.3 µM; in the assay with LPS from S. marcascens (Table 2), above 5 µM; in the assay with LPS from S. marcascens (Table 3, errors estimated ±30%) it was 1.5 µM.
As to `CCCc1cc2c(OCC(=O)NCCN(C)C)c(c1)Cc1cc(CCC)cc(c1OCC(=O)NCCN(C)C)Cc1cc(CCC)cc(c1OCC(=O)NCCN(C)C)Cc1cc(CCC)cc(c1OCC(=O)NCCN(C)C)C2` [Compound 11b], the IC50 in the assay with LPS from P. aeruginosa (Table 3, errors estimated ±30%) was above 5 µM; in assay [1] (Table 3, errors estimated ±30%), 2.7 µM; in assay [2] (setting [3]) it was 0.05 µM; in the assay with LPS from S. typhimurium (Table 3, errors estimated ±30%), 0.8 µM; in the assay on LPS from K. pneumoniae (Table 3, errors estimated ±30%) it was 0.4 µM; in the assay with LPS from S. marcascens (Table 3, errors estimated ±30%) it was above 5 µM.
Take `NCCNC(=O)COc1c2cccc1Cc1cccc(c1O)Cc1cccc(c1OCC(=O)NCCN)Cc1cccc(c1O)C2` [Compound 20]: the IC50 in the assay on LPS from P. aeruginosa (Table 2) is above 5 µM; in assay [1] (Table 2), above 5 µM; in assay [2] (setting [4]), above 5 µM; with LPS from S. typhimurium (Table 2) it was 1.2 µM; in the assay with LPS from K. pneumoniae (Table 2) it was above 5 µM; with LPS from S. marcascens (Table 2), above 5 µM.
`CC(C)CCOc1c2cccc1Cc1cc(CCCP(=O)(O)O)cc(c1O)Cc1cccc(c1OCCC(C)C)Cc1cc(CCCP(=O)(O)O)cc(c1O)C2` [Compound 48]: the IC50 is above 5 µM in the assay with LPS from P. aeruginosa (Table 2); above 5 µM in the assay on LPS from P. aeruginosa (Table 3, errors estimated ±30%); above 5 µM in assay [1] (Table 2); above 5 µM in assay [1] (Table 3, errors estimated ±30%); above 5 µM in assay [2] (setting [4]); above 5 µM in assay [2] (setting [3]). The IC50 in the assay with LPS from S. typhimurium (Table 2) was above 5 µM; in the assay with LPS from S. typhimurium (Table 3, errors estimated ±30%), above 5 µM; with LPS from K. pneumoniae (Table 2) it was above 5 µM; in the assay with LPS from K. pneumoniae (Table 3, errors estimated ±30%), above 5 µM; in the assay with LPS from S. marcascens (Table 2), above 5 µM; in the assay with LPS from S. marcascens (Table 3, errors estimated ±30%), above 5 µM.
Regarding `CC(C)CCOc1c2cccc1Cc1cc(CCCOS(=O)(=O)O)cc(c1O)Cc1cccc(c1OCCC(C)C)Cc1cc(CCCOS(=O)(=O)O)cc(c1O)C2` [Compound 49], the IC50 with LPS from P. aeruginosa (Table 2) was above 5 µM; in the assay on LPS from P. aeruginosa (Table 3, errors estimated ±30%), above 5 µM; in assay [1] (Table 2), 5 µM; in assay [1] (Table 3, errors estimated ±30%), 5 µM; in assay [2] (setting [4]) it was 5 µM; in assay [2] (setting [3]) it was 5 µM. Besides, the half-maximal inhibitory concentration (IC50) in the assay on LPS from S. typhimurium (Table 2) was above 5 µM; in the assay with LPS from S. typhimurium (Table 3, errors estimated ±30%), above 5 µM; in the assay with LPS from K. pneumoniae (Table 2), 2.1 µM; in the assay with LPS from K. pneumoniae (Table 3, errors estimated ±30%), 2.1 µM; in the assay on LPS from S. marcascens (Table 2), 4.2 µM; in the assay on LPS from S. marcascens (Table 3, errors estimated ±30%), 4.2 µM.
Regarding polymyxin B [PmxB, reference compound], the IC50 in the assay with LPS from P. aeruginosa (Table 2) is 0.003 µM; in the assay on LPS from P. aeruginosa (Table 3, errors estimated ±30%), 0.003 µM; in assay [1] (Table 2), 0.03 µM; in assay [1] (Table 3, errors estimated ±30%), 0.03 µM; in assay [2] (setting [4]) it was 0.03 µM; in assay [2] (setting [3]) it was 0.03 µM. For the same compound, the IC50 was 0.1 µM in the assay on LPS from S. typhimurium (Table 2); 0.3 µM in the assay on LPS from S. typhimurium (Table 3, errors estimated ±30%); 0.01 µM in the assay on LPS from K. pneumoniae (Table 2); 0.01 µM in the assay on LPS from K. pneumoniae (Table 3, errors estimated ±30%); above 5 µM in the assay with LPS from S. marcascens (Table 2); above 5 µM in the assay on LPS from S. marcascens (Table 3, errors estimated ±30%).

The record behind these values is patent US8642656B2, “Calixarene-based peptide conformation mimetics, methods of use, and methods of making” (priority 2004, dated 2014).
